ChEMBL document CHEMBL1148181, “Anti-AIDS agents, 9. Suberosol, a new C31 lanostane-type triterpene and anti-HIV principle from Polyalthia suberosa” (J Nat Prod, 1993)
Converted amounts (≈) assume the structure as drawn.

Tests used:
[1] = tested on: Human immunodeficiency virus 1; test: Antiviral activity against HIV1 3B in human H9 lymphocytes after 3 days by p24 antigen capture assay; assay type: functional, organism-based; details: Human immunodeficiency virus 1, 3B, 72 h
H9 = test: Cytotoxicity against human H9 lymphocytes; assay type: cell-based

SMILES: C=C(CC[C@@H](C)[C@H]1C[C@H](O)[C@@]2(C)C3=CC[C@H]4C(C)(C)[C@@H](O)CC[C@]4(C)C3=CC[C@]12C)C(C)C [SUBEROSOL]
- EC50 [1]: 3 µg/mL (≈ 6.6 µM)
- IC50 (H9): 20 µg/mL (≈ 44 µM)
